Assay [1] deals with T1, Amine oxidase [flavin-containing] B (Homo sapiens, UniProt P27338).
T1 sequence (P27338 whole entry): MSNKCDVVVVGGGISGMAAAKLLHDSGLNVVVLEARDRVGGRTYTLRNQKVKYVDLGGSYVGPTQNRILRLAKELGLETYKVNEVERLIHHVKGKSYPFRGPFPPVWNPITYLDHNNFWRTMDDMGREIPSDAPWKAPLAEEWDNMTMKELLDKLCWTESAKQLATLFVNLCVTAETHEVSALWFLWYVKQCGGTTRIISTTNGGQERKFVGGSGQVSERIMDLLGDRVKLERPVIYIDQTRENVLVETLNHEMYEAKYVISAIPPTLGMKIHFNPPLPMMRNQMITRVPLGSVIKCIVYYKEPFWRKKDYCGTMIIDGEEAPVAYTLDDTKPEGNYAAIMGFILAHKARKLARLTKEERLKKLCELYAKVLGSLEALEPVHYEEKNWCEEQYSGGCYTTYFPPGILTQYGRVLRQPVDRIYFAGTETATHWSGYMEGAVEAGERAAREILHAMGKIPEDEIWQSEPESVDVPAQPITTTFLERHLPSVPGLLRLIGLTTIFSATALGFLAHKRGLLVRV
Description: Binding affinity to MAOB (unknown origin) using 7-(3-amino-propoxy)-coumarin as substrate after 3 hr by spectrofluorometric analysis.

Assay [2] addresses T2, Amine oxidase [flavin-containing] A (Homo sapiens, UniProt P21397).
T2 sequence (P21397 whole entry): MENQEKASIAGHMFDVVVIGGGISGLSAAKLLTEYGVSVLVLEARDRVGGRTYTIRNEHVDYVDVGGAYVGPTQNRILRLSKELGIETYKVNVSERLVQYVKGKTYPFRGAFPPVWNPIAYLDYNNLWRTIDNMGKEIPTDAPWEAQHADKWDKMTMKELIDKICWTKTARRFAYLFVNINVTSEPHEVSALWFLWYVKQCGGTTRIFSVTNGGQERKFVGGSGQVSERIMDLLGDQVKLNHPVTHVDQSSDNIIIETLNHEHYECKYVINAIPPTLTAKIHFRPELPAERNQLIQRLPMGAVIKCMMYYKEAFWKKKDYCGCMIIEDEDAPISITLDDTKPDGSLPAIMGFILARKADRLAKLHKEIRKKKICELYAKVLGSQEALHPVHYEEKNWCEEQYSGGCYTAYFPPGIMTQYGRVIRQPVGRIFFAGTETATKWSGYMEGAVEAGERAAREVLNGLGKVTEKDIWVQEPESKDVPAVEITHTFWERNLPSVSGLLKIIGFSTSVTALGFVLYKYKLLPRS
Description: Binding affinity to MAOA (unknown origin) using 7-(3-amino-propoxy)-coumarin as substrate after 3 hr by spectrofluorometric analysis.

Regarding `NCCCCCCNCC(N)=O`, the IC50 in assay [1] is 79.5 µM; in assay [2], 8.6 µM.

As to `CC(C)(C)OC(=O)NCCCCCCNCC(N)=O`, the IC50 in assay [1] turned out to be 54.3 µM; in assay [2], 5.7 µM.

Values taken from ChEMBL document CHEMBL3044909, “Design, synthesis, and evaluation of an activity-based probe for cellular imaging of monoamine oxidases” (Med Chem Res, 2012).
